Entries after “also recorded” stand apart in the source; their conditions may differ. Like-named read-outs stand apart in the source and are kept apart here.
Tests used:
[1] = cited from earlier work
[2] = tested on: mice; details: cited from earlier work
[3] = Stability of Na2B12I12: bovine serum (11B NMR); format: in vitro ADME; details: 24-hour incubation at room temperature with bovine serum
Excerpt: (§1) General methods. Na2B12I12 was obtained from Katchem, γ-cyclodextrin (γ-CD) was obtained from Combi-Blocks, 2-hydroxypropyl-γ-cyclodextrin (HP-γ-CD; 0.6 functionalized, average Mw=1580 Da) was obtained from Sigma-Aldrich, phosphate-buffered saline (PBS) was obtained from Fisher Scientific. The reagents were used as received. D2O was obtained from Cambridge Isotopes. Washed single-donor human red blood cells (RBCs) were obtained from Innovative Research. These are RBCs that have been separated from type 0 positive whole blood and resuspended in Alsever's Solution. Defibrinated bovine blood was obtained from HemoStat Laboratories. All experiments were performed under ambient conditions. NMR spectra were collected using a Bruker Avance III HD 500 spectrometer equipped with a multinuclear Smart Probe. The frequencies of the ^1H and ^11B NMR signals are reported in ppm as chemical shifts from TMS and BF3·Et2O, respectively. Electronic absorption spectra were recorded on VWR UV-6300PC double beam spectrophotometer. […] Each sample was spiked with D2O and analyzed by ^11B NMR spectroscopy. […] The absorbance of this solution was measured from 700 to 350 nm. The subsequent samples were then measured in turn. […] The absorbance corresponding to 100% lysis was confirmed by adding a 10 μL aliquot of freshly resuspended RBCs to 250 μL of hemolysis buffer (0.15 M NH4Cl and 10 mM KHCO3). […]

[4] = Stability of Na2B12I12: bovine blood (11B NMR); format: in vitro ADME; details: 24-hour incubation at room temperature with defibrinated bovine blood
Excerpt: as §1

[5] = tested on: human red blood cells (RBCs); experiment: Hemolytic activity of Na2B12I12 (Hb release from RBCs); format: cell-based
Excerpt: as §1, with “spectrophotometer. Stability of Na2B12I12: refluxing PBS. A 500 μL aliquot of a 10 mM solution of Na2B12I12 in PBS (pH 7.4) was placed in an oil bath pre-heated to 100° C. After incubating in this bath for 1 h, the sample was removed, cooled to room temperature, and spiked with 50 μL D2O prior to acquiring a ^11B NMR spectrum. Stability of Na2B12I12: human RBCs. A 275 μL aliquot of a 20 mM solution of Na2B12I12 in PBS (pH 7.4) was added to a 225 μL suspension of human RBCs. The mixture was allowed to stand at room temperature for 24 h. It was then spiked with 50 μL D2O prior to acquiring a ^11B NMR spectrum. […] Stability of Na2B12I12: bovine serum. A 1 mL aliquot of defibrinated bovine blood was centrifuged for 15 s at 15,850×g. A 225 μL aliquot of the serum supernatant was combined with a 275 μL aliquot of a 20 mM solution of Na2B12I12 in PBS (pH 7.4). The mixture was allowed to stand at room temperature for 24 h. It was then spiked with 50 μL D2O prior to acquiring a ^11B NMR spectrum. Stability of Na2B12I12: bovine blood. A 225 μL aliquot of defibrinated bovine blood was combined with a 275 μL aliquot of a 20 mM solution of Na2B12I12 in PBS (pH 7.4). The mixture was allowed to stand at room temperature for 24 h. It was then spiked with 50 μL D2O prior to acquiring a ^11B NMR spectrum. Job plot of HP-γ-CD and Na2B12I12. Solutions of Na2B12I12 (20 mM) and […] (20 mM) were prepared in PBS (pH 7.4).” for “spectrophotometer.”

[6] = tested on: cats; details: cited from earlier work
[7] = Stability of Na2B12I12: refluxing PBS (11B NMR); format: physicochemical; details: refluxing in PBS pH 7.4 (100° C.) for 1 hour
Excerpt: as §1

[8] = Stability of Na2B12I12: human RBCs (11B NMR); format: in vitro ADME; details: 24-hour incubation at room temperature with suspension of human RBCs
Excerpt: as §1

## closo-dodecaiodododecaborate [B12I12^2−]
[1]; heating to 85° C. in 5M NaOH
  chemical stability: unchanged
[1]; heating to 150° C. in H2SO4
  chemical stability: unchanged
[1]; treatment with Cl2 gas
  chemical stability: unchanged

## closo-dodecaiodododecaborate sodium [Na2B12I12]
[2]
  toxicity: toxic
[3]
  stability (new 11B NMR signals): no additional signals appear; also recorded: absence of new signals
[4]
  stability (new 11B NMR signals): no additional signals appear; also recorded: absence of new signals
[5]; 100 mM Na2B12I12, no cyclodextrin, human RBCs
  hemolysis: rapid hemolysis; also recorded: complete hemolysis
[5]; Na2B12I12 alone
  concentrations at which hemolysis is not induced: below 6 mM
[5]; PBS
  concentration of PBS solutions that induce hemolysis: greater than 50 mM
[5]; human RBCs in PBS pH 7.4, 10 s exposure, three replicates, read-out: IC50 (proportion of RBCs lysed, absorption of supernatant at 413 nm, logistic regression) (converted)
  IC50: 66.3 mM
[6]
  toxicity: toxic
[7]
  stability (new 11B NMR signals): lack of new ^11B NMR signals
[8]
  stability (new 11B NMR signals): no additional signals appear; also recorded: absence of new signals

— patent publication US20250121099A1, “CLOSO-DODECAIODODECABORATE COMPLEXES AND METHODS OF USE FOR SAME” (The Regents of the University of California, priority 2022, published 2025)
